Data published in ChEMBL document CHEMBL1201862, “PubChem BioAssay data set” (2004).
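Compound exposure: 48 hours, 5 concentrations, 96-well plates. Abbreviation: GI50, concentration required for 50% inhibition of growth.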 The source made the active and inactive calls. Cut-off read from the data, not from the text of the source: active = GI50 up to about 1.1 µM and inactive = higher.

Assays:
Assay in all cases: NCI-60 cell line screen, 48 h
EKVX = test system: EKVX
SNB-19 = test system: SNB-19
HT-29 = test system: HT-29
786-0 = test system: 786-0
LOX IMVI = test system: LOX IMVI
SN12C = test system: SN12C
UACC-257 = test system: UACC-257
XF498 = test system: XF498
RXF 393 = test system: RXF 393
SK-MEL-2 = test system: SK-MEL-2
LXFL 529 = test system: LXFL 529
A549 = test system: A549
PC-3 = test system: PC-3
MCF7 = test system: MCF7
T47D = test system: T47D
MDA-MB-231 = test system: MDA-MB-231
MDA-N = test system: MDA-N
MDA-MB-435 = test system: MDA-MB-435
Hs-578T = test system: Hs-578T
NCI/ADR-RES = test system: NCI/ADR-RES

Structure (SMILES)	GI50 (EKVX)	GI50 (SNB-19)	GI50 (HT-29)	GI50 (786-0)	GI50 (LOX IMVI)	GI50 (SN12C)	GI50 (UACC-257)	GI50 (XF498)	GI50 (RXF 393)	GI50 (SK-MEL-2)	GI50 (LXFL 529)	GI50 (A549)	GI50 (PC-3)	GI50 (MCF7)	GI50 (T47D)	GI50 (MDA-MB-231)	GI50 (MDA-N)	GI50 (MDA-MB-435)	GI50 (Hs-578T)	GI50 (NCI/ADR-RES)
O=C(/N=C(/Nc1ccccc1)SCCS/C(=N\C(=O)c1ccccc1)Nc1ccccc1)c1ccccc1	> 100 µM (inactive)	56.4 µM (inactive)	35.6 µM (inactive)	61.4 µM (inactive)	58.6 µM (inactive)	63.1 µM (inactive)	42.5 µM (inactive)	36.9 µM (inactive)	29.6 µM (inactive)	> 100 µM (inactive)	56.2 µM (inactive)	65.2 µM (inactive)								
O=C1NC2(CCCC2)/C(=N\O)C12CCCC2	> 100 µM (inactive)	> 100 µM (inactive)	> 100 µM (inactive)	> 100 µM (inactive)	> 100 µM (inactive)	> 100 µM (inactive)	> 100 µM (inactive)	> 100 µM (inactive)	> 100 µM (inactive)	> 100 µM (inactive)	> 100 µM (inactive)	> 100 µM (inactive)								
COc1ccc(C2(CN(C)C)COc3cc(OC)c(OC)cc3C2=O)cc1OC (stereo not given)	> 100 µM (inactive)	> 100 µM (inactive)	46.7 µM (inactive)	> 100 µM (inactive)	16.6 µM (inactive)	77.1 µM (inactive)	49.1 µM (inactive)	30.1 µM (inactive)	31.8 µM (inactive)		20.1 µM (inactive)	69.8 µM (inactive)								
O=c1/c(=C/c2ccc(Cl)cc2Cl)sc2nc3ccccc3n12	> 100 µM (inactive)	> 100 µM (inactive)	> 100 µM (inactive)	> 100 µM (inactive)	> 100 µM (inactive)	> 100 µM (inactive)	> 100 µM (inactive)	> 100 µM (inactive)	> 100 µM (inactive)	> 100 µM (inactive)	> 100 µM (inactive)	> 100 µM (inactive)								
CC(=O)O[C@H]1CC2C=CC3C(CCC31)O2 (stereo not given in full)	> 100 µM (inactive)	> 100 µM (inactive)	> 100 µM (inactive)	> 100 µM (inactive)	> 100 µM (inactive)	> 100 µM (inactive)		> 100 µM (inactive)	> 100 µM (inactive)		> 100 µM (inactive)	> 100 µM (inactive)								
CCOc1cn(C2OC(CO)C(O)C2O)c(=O)[nH]c1=O (stereo not given)	> 100 µM (inactive)	> 100 µM (inactive)	> 100 µM (inactive)	> 100 µM (inactive)	> 100 µM (inactive)	> 100 µM (inactive)	> 100 µM (inactive)		> 100 µM (inactive)	> 100 µM (inactive)	> 100 µM (inactive)	> 100 µM (inactive)								
CCCCCCCCc1cc2c(O)c(c1)Cc1cc(CCCCCCCC)cc(c1O)Cc1cc(CCCCCCCC)cc(c1O)Cc1cc(CCCCCCCC)cc(c1O)Cc1cc(CCCCCCCC)cc(c1O)Cc1cc(CCCCCCCC)cc(c1O)C2		> 100 µM (inactive)	> 100 µM (inactive)	> 100 µM (inactive)	> 100 µM (inactive)	> 100 µM (inactive)	> 100 µM (inactive)	> 100 µM (inactive)		> 100 µM (inactive)	> 100 µM (inactive)	> 100 µM (inactive)								
O=C(c1ccccc1)[C@H]1Nc2ccc(Cl)cc2[C@H]2c3ccccc3O[C@H]21	15.2 µM (inactive)	15.7 µM (inactive)	12.7 µM (inactive)	16.6 µM (inactive)	20.7 µM (inactive)	14.1 µM (inactive)	2.45 µM (inactive)	14.7 µM (inactive)	10.1 µM (inactive)	13.5 µM (inactive)	15 µM (inactive)	14.6 µM (inactive)								
Oc1cc(-c2ccccc2)nc2cc(Cl)ccc12	> 100 µM (inactive)	0.527 µM (active)	2 µM (inactive)	0.507 µM (active)	0.869 µM (active)	3.3 µM (inactive)	14.1 µM (inactive)	0.304 µM (active)	0.157 µM (active)	0.445 µM (active)	0.805 µM (active)	0.515 µM (active)								
CCC1CCC2CCCC(C)N12 (stereo not given)	> 100 µM (inactive)	> 100 µM (inactive)		> 100 µM (inactive)		> 100 µM (inactive)	> 100 µM (inactive)	> 100 µM (inactive)		> 100 µM (inactive)	> 100 µM (inactive)	> 100 µM (inactive)								
NCCOCn1cc(Cc2cccc(OCc3ccccc3)c2)c(=O)[nH]c1=O	> 100 µM (inactive)	> 100 µM (inactive)	71.1 µM (inactive)	53.6 µM (inactive)	39 µM (inactive)	> 100 µM (inactive)				> 100 µM (inactive)	> 100 µM (inactive)	> 100 µM (inactive)								
O=C1CC[C@@H](NC(=O)Cc2ccccc2)C(=O)N1	> 100 µM (inactive)	> 100 µM (inactive)	> 100 µM (inactive)	> 100 µM (inactive)	> 100 µM (inactive)	> 100 µM (inactive)	> 100 µM (inactive)	> 100 µM (inactive)		> 100 µM (inactive)	> 100 µM (inactive)	> 100 µM (inactive)								
COC1=CC(=O)C2C(C1=O)C(c1ccccc1)[C@H]2C (stereo not given in full)	> 100 µM (inactive)	> 100 µM (inactive)	> 100 µM (inactive)	> 100 µM (inactive)	> 100 µM (inactive)			22.3 µM (inactive)	> 100 µM (inactive)	> 100 µM (inactive)	37.2 µM (inactive)	> 100 µM (inactive)								
CN(C)c1ccc(/C=C2\N=C(NN)NC2=O)cc1	31.9 µM (inactive)	> 100 µM (inactive)	31.3 µM (inactive)	75.2 µM (inactive)	35.3 µM (inactive)	> 100 µM (inactive)	> 100 µM (inactive)		63.5 µM (inactive)	> 100 µM (inactive)		61.8 µM (inactive)	40.2 µM (inactive)	54.8 µM (inactive)	44.4 µM (inactive)	59.3 µM (inactive)	73.8 µM (inactive)	58.6 µM (inactive)	> 100 µM (inactive)	82.2 µM (inactive)
N#CC(/C(=N/NC(N)=S)C(=O)Nc1cccc(Cl)c1)c1ccccc1 (stereo not given)	> 100 µM (inactive)	> 100 µM (inactive)	> 100 µM (inactive)	> 100 µM (inactive)		> 100 µM (inactive)	> 100 µM (inactive)	> 100 µM (inactive)		> 100 µM (inactive)	> 100 µM (inactive)	> 100 µM (inactive)								
Brc1ccc(C2SCc3nc4ccccc4n32)cc1 (stereo not given)	11.9 µM (inactive)	4.48 µM (inactive)	7.78 µM (inactive)	12.2 µM (inactive)	6.46 µM (inactive)	13.7 µM (inactive)		11.8 µM (inactive)	7.45 µM (inactive)	14.1 µM (inactive)	7.36 µM (inactive)	19 µM (inactive)								
COC(=O)C1C(=O)C(C(=O)OC)C2CCC1N2C (stereo not given)	> 100 µM (inactive)	> 100 µM (inactive)	35 µM (inactive)	33.7 µM (inactive)	35.4 µM (inactive)	32.1 µM (inactive)	83.4 µM (inactive)		24.9 µM (inactive)	20 µM (inactive)		> 100 µM (inactive)	29.4 µM (inactive)	33.6 µM (inactive)	30.7 µM (inactive)	39 µM (inactive)	23.8 µM (inactive)	24.8 µM (inactive)	52.2 µM (inactive)	48.6 µM (inactive)
Cc1cc(O)c2c(c1)CC(O)C1=C2C(=O)c2c(O)ccc(OC3CC(O)C(OC4CC(OC5CCC(O)C(C)O5)C(O)C(C)O4)C(C)O3)c2C1=O (stereo not given)	1.89 µM (inactive)	1.6 µM (inactive)	2.27 µM (inactive)	1.42 µM (inactive)	1.33 µM (inactive)	1.73 µM (inactive)	1.57 µM (inactive)		1.46 µM (inactive)	1.58 µM (inactive)		2.33 µM (inactive)	1.71 µM (inactive)	1.39 µM (inactive)	2.15 µM (inactive)	1.77 µM (inactive)	1.84 µM (inactive)	1.03 µM (active)	2.62 µM (inactive)	2.93 µM (inactive)
Cc1cc(S(=O)(=O)Nc2nc(N)n(-c3ccccn3)n2)c(S)cc1Cl	> 100 µM (inactive)	> 100 µM (inactive)	> 100 µM (inactive)	> 100 µM (inactive)	> 100 µM (inactive)	> 100 µM (inactive)	> 100 µM (inactive)		> 100 µM (inactive)	> 100 µM (inactive)		> 100 µM (inactive)	> 100 µM (inactive)	> 100 µM (inactive)	> 100 µM (inactive)	> 100 µM (inactive)	> 100 µM (inactive)	> 100 µM (inactive)	75 µM (inactive)	> 100 µM (inactive)
O=C(OCCNC(=O)N1CC1)OCCNC(=O)N1CC1	> 10 µM (inactive)	> 10 µM (inactive)	> 10 µM (inactive)	> 10 µM (inactive)	> 10 µM (inactive)	> 10 µM (inactive)	> 10 µM (inactive)		> 10 µM (inactive)	> 10 µM (inactive)		> 10 µM (inactive)	> 10 µM (inactive)	> 10 µM (inactive)	> 10 µM (inactive)	> 10 µM (inactive)	> 10 µM (inactive)	> 10 µM (inactive)	> 10 µM (inactive)	> 10 µM (inactive)
O=c1[nH]c(=S)[nH]cc1CN1CCOCC1	> 100 µM (inactive)	> 100 µM (inactive)	> 100 µM (inactive)	> 100 µM (inactive)	> 100 µM (inactive)	> 100 µM (inactive)	> 100 µM (inactive)		> 100 µM (inactive)	> 100 µM (inactive)		> 100 µM (inactive)	> 100 µM (inactive)	> 100 µM (inactive)	> 100 µM (inactive)	> 100 µM (inactive)	> 100 µM (inactive)	> 100 µM (inactive)	> 100 µM (inactive)	> 100 µM (inactive)
